Measurements: PMC6511062, “Preclinical candidate for the treatment of visceral leishmaniasis that acts through proteasome inhibition” (Proceedings of the National Academy of Sciences of the …, 2019)

Experiments:
bloodstream T. brucei = assay: Cell cycle (FACS) analysis, bloodstream T. brucei; type: cell-based, Trypanosoma brucei; settings: 5x EC50
Description: consisted of 1 µL (40 ng) of cDNA, 10 µL of Brilliant III Ultra-Fast QPCR Master Mix (Agilent Technologies), 1 µL (500 nM) each of the forward and reverse primers, and 0.3 µl (30 nM) of reference dye and nuclease-free PCR grade-treated water. PCR was performed using an Agilent Mx3005P machine with the following cycling conditions:
95°C for 3 min; 40 cycles of 95°C for 20 s; then 60 °C for 20 s. The reference gene TERT (Tb927.11.10190, telomerase reverse transcriptase) was used to provide a baseline of transcription levels for normalization of the data. Relative quantification in the tetracycline-induced cell lines were normalized to the un-induced cell line using the […]
h. Morphological analysis […]
Cultures of bloodstream T. brucei and L. donovani promastigotes at starting cell densities of 5 x 105 were incubated with concentrations of compound 7 equivalent to 5x their respective EC50 values. […] After washing, cell densities were adjusted to 5 × 10^5 cells mL, re-suspended in 500 µL of PBS containing 50 µg/mL propidium iodide, 50 µg/mL RNase and 0.1% Triton X-100, incubated at room temperature for 20 min in the dark and analysed using FACSort analytical flow cytometer using Cellquest software (BD Biosciences). j. […]

[1] = test system: Salmonella typhimurium TA1535, TA1537, TA98, TA100 and Escherichia coli WP2uvrA(pKM101); assay: Bacterial mutation screening assay (Ames test), overall outcome; type: cell-based; settings: presence and absence of S9-mix
Description: i. Bacterial Mutation (Ames) Assay
Compound 6 was tested in a bacterial mutation screening assay (Ames test) with Salmonella typhimurium TA1535, TA1537, TA98, TA100 and Escherichia coli WP2uvrA(pKM101) in the presence and absence of an exogenous mammalian oxidative metabolism system (S9-mix). The maximum concentration tested and […]
Compound 6a was tested in a bacterial mutation screening assay (Ames test) with […]
Compound 7a was tested in a bacterial mutation screening assay (Ames test) with […]
The bacterial mutation screening assay was a plate incorporation test carried out as previously described15 and according to current methodology. […]

For `O=C(Nc1ccc(F)c(-c2cn3nc(-c4ccccc4)cnc3n2)c1)N1CCCC1` [Compound 7], the “effect on cell cycle progression” value (bloodstream T. brucei) was “accumulation of cells in G2/M”.

`O=C(Nc1ccc(F)c(-c2ccn3c(N4CCOCC4)cnc3n2)c1)N1CCCC1` [Compound 8] was tested, and the AMES [1] was “negative”.
